Assay results published in patent publication US20160220587A1, “VITAMIN D COMPLEXES WITH DE-VDBP AND AN UNSATURATED FATTY ACID, AND THEIR USE IN THERAPY” (priority 2013, published 2016).
Where no end group is shown, it is not given here.

Assays:
[1] = system: MCF-7 human breast cancer cell; assay: MCF-7 cell proliferation (Calbiochem Rapid Cell Proliferation Kit); type: cell-based; details: for Absorbance units (×10^3), cell proliferation: control (no addition) 450 ± 21
Protocol: The biological activity of the molecules and the multimolecular complexes described in the preceding sections was tested in an in vitro system (MCF-7 human breast cancer cell cultures) that is routinely used to assess the biological activity of vitamin D3 and of the other components of the vitamin D axis (Evid Based Complement Alternat Med. 2012; 2012:310872. Oncol Rep. 2012 December; 28(6):2131-7. Anticancer Res. 2012 March; 32(3):739-46). Human breast carcinoma cells MCF-7 were challenged with different concentration of vitamin D3, de-VDBP, and [vitamin D3/de-VDBP/oleic acid]. […] The same level of inhibition, however, could be achieved with 1000 fold less vitamin D3 when it was complexed with de-VDBP and oleic acid.

[2] = biological target: T1, VDBP (Homo sapiens, UniProt P02774); details: relative to vitamin D3; Am J Kidney Dis, 1998; 32:S25-39; cited from earlier work
T1 sequence (P02774 17-474): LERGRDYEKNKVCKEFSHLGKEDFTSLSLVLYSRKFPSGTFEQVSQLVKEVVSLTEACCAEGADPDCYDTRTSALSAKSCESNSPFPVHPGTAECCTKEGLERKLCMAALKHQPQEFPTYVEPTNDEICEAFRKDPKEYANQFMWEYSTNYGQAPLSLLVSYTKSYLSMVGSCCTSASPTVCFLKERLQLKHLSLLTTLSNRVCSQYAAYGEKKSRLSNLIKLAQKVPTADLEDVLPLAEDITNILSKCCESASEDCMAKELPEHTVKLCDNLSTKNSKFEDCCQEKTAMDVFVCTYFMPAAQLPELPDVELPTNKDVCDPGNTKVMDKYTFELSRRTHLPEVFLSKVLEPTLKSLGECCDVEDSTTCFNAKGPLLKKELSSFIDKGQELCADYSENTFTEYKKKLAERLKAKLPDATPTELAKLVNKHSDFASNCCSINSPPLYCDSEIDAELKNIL

[2H]C([2H])=C1/C(=C([2H])\C=C2/CCC[C@]3(C)[C@@H]([C@H](C)CCCC(C)(C)O)CC[C@@H]23)C[C@@H](O)C[C@@H]1O [Vitamin D3, 1α,25-Dihydroxyvitamin D3 (6,19,19-d3)]
Absorbance units (×10^3), cell proliferation ([1]; Vitamin D3 1 nM): 425 ± 10 Absorbance units (×10^3)
Absorbance units (×10^3), cell proliferation ([1]; Vitamin D3 1 uM): 55 ± 10 Absorbance units (×10^3)
Concentration giving maximal inhibition of MCF-7 proliferation ([1]; very high, non-physiological concentration): 1 µM

de-VDBP: vitamin D binding protein de-glycosylated at position Thr 420 by sequential removal of sialic acid and galactose (DSTTCFNAKGPLLKKELSSFIDKGQELC; cysteine pairing not given here; also: de-glycosylated at Thr 420 by removal of sialic acid and galactose; listed as Homo sapiens)
Absorbance units (×10^3), cell proliferation ([1]; de-VDBP 1 ng/ml): 395 ± 37 Absorbance units (×10^3)

C=C1/C(=C\C=C2/CCC[C@]3(C)[C@@H]([C@H](C)/C=C/[C@@H](O)C4CC4)CC[C@@H]23)C[C@@H](O)C[C@@H]1O [calcipotriene]
VDBP affinity [2]: low

C=C1/C(=C\C=C2/CCC[C@]3(C)[C@@H]([C@H](C)OCCC(C)(C)O)CC[C@@H]23)C[C@@H](O)C[C@@H]1O [22-oxacalcitriol]
VDBP affinity [2]: low

B1: [Vitamin D3 1 nM/de-VDBP 1 ng/ml/oleic acid 1/1]: trimeric complex of vitamin D3 and oleic acid bound to de-VDBP via hydrophobic interactions (protein, UniProt P02774 17-474, looked up)
Vitamin D-binding protein: LERGRDYEKNKVCKEFSHLGKEDFTSLSLVLYSRKFPSGTFEQVSQLVKEVVSLTEACCAEGADPDCYDTRTSALSAKSCESNSPFPVHPGTAECCTKEGLERKLCMAALKHQPQEFPTYVEPTNDEICEAFRKDPKEYANQFMWEYSTNYGQAPLSLLVSYTKSYLSMVGSCCTSASPTVCFLKERLQLKHLSLLTTLSNRVCSQYAAYGEKKSRLSNLIKLAQKVPTADLEDVLPLAEDITNILSKCCESASEDCMAKELPEHTVKLCDNLSTKNSKFEDCCQEKTAMDVFVCTYFMPAAQLPELPDVELPTNKDVCDPGNTKVMDKYTFELSRRTHLPEVFLSKVLEPTLKSLGECCDVEDSTTCFNAKGPLLKKELSSFIDKGQELCADYSENTFTEYKKKLAERLKAKLPDATPTELAKLVNKHSDFASNCCSINSPPLYCDSEIDAELKNIL
modifications: deglycosylated; vitamin D3 and oleic acid bound
Absorbance units (×10^3), cell proliferation ([1]; Vitamin D3 1 nM / de-VDBP 1 ng/ml / oleic acid ratio 1/1): 55 ± 9 Absorbance units (×10^3)
Fold less vitamin D3 needed for the same level of inhibition ([1]; versus 1 uM vitamin D3 alone): 1000 fold
